According to patent US20260199350A1, “FLAVONES, QUINOLINONES, QUINAZOLINONES, AND AURONES, AND USES IN CK2-MEDIATED DISEASES” (Salk Institute for Biological Studies, priority 2022, published 2026):
Where two headings read alike, the source gives them in different places.

What was measured:
[1] = system: IL-6 secretion; assay: IL-6 secretion assay in astrocytes (Promega Lumit IL-6 kit); assay type: cell-based, human; conditions: Homo sapiens, Astrocyte; Table 2; astrocytes; read-out: IL6-Inhib.
Procedure: IL-6 secretion assay. HCAs were plated at 20,000 cells per well in white clear bottom 96-well plates. Two to three days later, media was removed and replaced with media containing 10 ng/mL IL1B and compound dilution series. Five hours later, plates were processed using the Lumit IL-6 Assay Kit (Promega W6030) according to the manufacturer's instructions.
• ^1Radiometric kinase assay from Eurofins. Performed in astrocytes with a Promega Lumit IL-6 kit. A series of halogenated flavones was generated and assayed (Table 3).

[2] = biological target: T1, CK2A2 (Homo sapiens, UniProt P19784); assay: Radiometric kinase assay (Eurofins), CK2A2; assay type: biochemical; conditions: read-out: CK2A2 RAD IC50
T1 construct: purchased Eurofins
Description: (§1) • ^1Radiometric kinase assay from Eurofins. Performed in astrocytes with a Promega Lumit IL-6 kit.

[3] = biological target: T2, CK2A1 (Homo sapiens, UniProt P68400); assay: Radiometric kinase assay (Eurofins), CK2A1; assay type: biochemical; conditions: read-out: CK2A1 RAD IC50
T2 construct: purchased Eurofins
Description: FIGS. 4A-4F characterize flavones for in vitro and in-cell CK2 inhibition. […] Representative of two independent experiments. […] Nonlinear fit was used to calculate IC50. […] Nonlinear fit was used to calculate IC50. […] Nonlinear fit was used to calculate IC50. […] Normalized to DMSO, data are representative of three independent experiments.
as §1

T2 sequence (P68400 whole entry): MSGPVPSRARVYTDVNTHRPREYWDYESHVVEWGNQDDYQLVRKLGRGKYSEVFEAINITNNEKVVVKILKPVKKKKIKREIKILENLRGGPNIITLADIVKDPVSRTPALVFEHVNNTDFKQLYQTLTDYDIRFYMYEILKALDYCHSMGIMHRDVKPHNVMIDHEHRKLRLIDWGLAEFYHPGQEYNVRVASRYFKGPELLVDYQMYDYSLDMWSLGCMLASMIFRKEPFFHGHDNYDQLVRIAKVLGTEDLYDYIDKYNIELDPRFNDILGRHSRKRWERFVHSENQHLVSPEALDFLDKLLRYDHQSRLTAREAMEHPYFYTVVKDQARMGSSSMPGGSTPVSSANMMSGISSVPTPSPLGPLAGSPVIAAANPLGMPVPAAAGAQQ
T1 sequence (P19784 whole entry): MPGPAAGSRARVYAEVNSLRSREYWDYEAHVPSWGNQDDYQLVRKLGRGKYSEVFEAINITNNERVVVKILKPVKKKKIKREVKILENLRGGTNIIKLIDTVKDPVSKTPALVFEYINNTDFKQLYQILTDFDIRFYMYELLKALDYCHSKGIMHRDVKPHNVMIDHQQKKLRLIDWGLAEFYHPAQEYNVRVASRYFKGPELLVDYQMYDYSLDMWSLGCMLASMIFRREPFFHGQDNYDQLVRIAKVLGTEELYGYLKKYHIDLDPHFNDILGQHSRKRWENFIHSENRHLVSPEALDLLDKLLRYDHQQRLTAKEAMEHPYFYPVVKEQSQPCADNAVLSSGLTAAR

## O=c1cc(-c2ccc(O)c(Br)c2)oc2c(Br)cc(Br)cc12 [JKT.464A]
[1]
  IC50: 5000 nM
[2]; Table 2
  IC50: 3 nM
[3]; Table 2
  IC50: 19 nM

## O=c1cc(-c2ccc(O)c(C(F)(F)F)c2)[nH]c2c(Br)cc(Br)cc12 [Compound 1095B]
[2]; Table 7
  IC50: 699 nM
[3]; Table 7
  IC50: 488 nM

## O=c1cc(-c2ccc(O)c(Cl)c2)[nH]c2c(Br)cc(Br)cc12 [Compound 1103A]
[2]; Table 7
  IC50: 71 nM
[3]; Table 7
  IC50: 141 nM

## COc1cc(/C=C2\Oc3c(ccc(OC)c3Br)C2=O)ncc1O [Compound 1189A]
[2]; Table 12
  IC50: 149 nM
[3]; Table 12
  IC50: 117 nM

## COc1cc(/C=C2\Oc3c(cc(Br)c(OC)c3Br)C2=O)ncc1O [Compound 1164A]
[2]; Table 12
  IC50: 331 nM
[3]; Table 12
  IC50: 120 nM

## COc1ccc2c(=O)cc(-c3ccc(O)c(C4CC4)c3)oc2c1Br [Compound 1142A]
[2]; Table 5
  IC50: 2230 nM
[3]; Table 5
  IC50: 2790 nM

## O=c1cc(-c2ccc(O)c(O)c2)oc2c(Br)cc(Br)cc12 [Compound 1004A]
[2]; Table 5
  IC50: 803 nM
[3]; Table 5
  IC50: 845 nM

## COc1cc(-c2nc3c(Br)cc(Br)cc3c(=O)n2C)ccc1O [JKT.876A]
[2]; Table 8, quinazolinones
  IC50: > 5000 nM
[3]; Table 8, quinazolinones
  IC50: > 5000 nM

## COc1cc(-c2cc(=O)c3cc(Br)cc(Br)c3[nH]2)ncc1O [Compound 1077A]
[2]; Table 7
  IC50: > 5000 nM
[3]; Table 7
  IC50: > 5000 nM

## Cn1c(-c2cc(F)c(O)c(F)c2)nc2c(Br)cccc2c1=O [JKT.873A]
[2]; Table 8, quinazolinones
  IC50: 649 nM
[3]; Table 8, quinazolinones
  IC50: 566 nM

## O=c1[nH]c(-c2ccc(O)c(Cl)n2)nc2c(Br)cc(Br)cc12 [JKT.956A]
[2]; Table 8, quinazolinones
  IC50: 105 nM
[3]; Table 8, quinazolinones
  IC50: 132 nM

## COc1cc2oc(-c3ccc(O)c(OC)n3)cc(=O)c2cc1Br [Compound 1058A]
[2]; Table 5
  IC50: 1180 nM
[3]; Table 5
  IC50: 2730 nM

## COc1cc(-c2nc3c(Br)cccc3c(=O)n2C)ccc1O [JKT.877A]
[2]; Table 8, quinazolinones
  IC50: > 5000 nM
[3]; Table 8, quinazolinones
  IC50: > 5000 nM

## Cn1c(-c2ccc(O)c(C(F)(F)F)c2)nc2c(Br)cc(Br)cc2c1=O [JKT.874D]
[2]; Table 8, quinazolinones
  IC50: > 5000 nM
[3]; Table 8, quinazolinones
  IC50: > 5000 nM

## O=c1cc(-c2cc(Br)c(O)cn2)[nH]c2c(Br)cc(Br)cc12 [Compound 1066A]
[2]; Table 7
  IC50: 1290 nM
[3]; Table 7
  IC50: 2700 nM

## Cc1cc(-c2cc(=O)c3cc(Br)cc(Br)c3o2)ccc1O [JKT.475A]
[1]
  IC50: > 10000 nM
[2]; Table 2
  IC50: 2060 nM
[3]; Table 2
  IC50: > 5000 nM

## O=c1[nH]c(-c2ccc(O)c(Cl)n2)nc2c(Cl)cc(Cl)cc12 [Compound 963A]
[2]; Table 9
  IC50: 62 nM
[3]; Table 9
  IC50: 176 nM

## O=c1[nH]c(-c2cc(Br)c(O)cn2)nc2c(Cl)cc(Cl)cc12 [Compound 1006A]
[2]; Table 9
  IC50: 85 nM
[3]; Table 9
  IC50: 182 nM

## O=c1cc(-c2ccc(O)c(C3CC3)c2)oc2c(Br)cc(Br)cc12 [Compound 1132A]
[2]; Table 5
  IC50: > 5000 nM
[3]; Table 5
  IC50: > 5000 nM

## O=c1cc(-c2cc(Br)c(O)cn2)oc2c(Br)cc(Br)cc12 [JKT.923A]
[2]; Table 4
  IC50: 8 nM
[3]; Table 4
  IC50: 11 nM

## COc1ccc2c(c1Br)O/C(=C\c1ccc(O)c(OC)n1)C2=O [Compound 1188A]
[2]; Table 12
  IC50: 144 nM
[3]; Table 12
  IC50: 465 nM

## O=c1[nH]c(-c2cc(Br)c(O)cn2)nc2c(Br)cc(Br)cc12 [JKT.932F]
[2]; Table 8, quinazolinones
  IC50: 99 nM
[3]; Table 8, quinazolinones
  IC50: 107 nM

## Cn1c(-c2ccc(O)c(Cl)c2)nc2c(Br)cccc2c1=O [JKT.870A]
[2]; Table 8, quinazolinones
  IC50: > 5000 nM
[3]; Table 8, quinazolinones
  IC50: > 5000 nM

## COc1c(Br)cc2c(c1Br)O/C(=C\c1cc(Br)c(O)cn1)C2=O [Compound 1174A]
[2]; Table 12
  IC50: 27 nM
[3]; Table 12
  IC50: 86 nM

## Cn1c(-c2ccc(O)c(C(F)(F)F)c2)nc2c(Br)cccc2c1=O [JKT.875A]
[2]; Table 8, quinazolinones
  IC50: > 5000 nM
[3]; Table 8, quinazolinones
  IC50: > 5000 nM

## COc1cc(-c2cc(=O)c3cc(Br)ccc3o2)ncc1O [Compound 1065A]
[2]; Table 5
  IC50: 364 nM
[3]; Table 5
  IC50: 401 nM

## COc1cc(-c2cc(=O)c3cc(Br)cc(Br)c3o2)ncc1O [JKT.77A]
[1]
  IC50: 6700 nM
[2]; Table 2
  IC50: 19 nM
[3]; Table 2
  IC50: 21 nM

## O=c1cc(-c2ccc(O)c(Br)c2)oc2c(Br)nc(Br)cc12 [JKT.909A]
[2]; Table 4
  IC50: 6 nM
[3]; Table 4
  IC50: 6 nM

## COc1ccc2c(=O)cc(-c3ccc(O)c(OC)n3)oc2c1Br [Compound 1059A]
[2]; Table 5
  IC50: 251 nM
[3]; Table 5
  IC50: 185 nM

## COc1nc(/C=C2\Oc3c(Br)cc(Br)cc3C2=O)ccc1O [Compound 1150A]
[2]; Table 12
  IC50: 109 nM
[3]; Table 12
  IC50: 178 nM

## COc1nc(/C=C2\Oc3c(Br)cccc3C2=O)ccc1O [Compound 1226A]
[2]; Table 12
  IC50: 91 nM
[3]; Table 12
  IC50: 131 nM

## O=C1/C(=C/c2ccc(O)c(C3CC3)c2)Oc2c(Br)cc(Br)cc21 [Compound 1131A]
[2]; Table 12
  IC50: > 5000 nM
[3]; Table 12
  IC50: > 5000 nM
